Tests used:
[1] = tested on: a variety of dicotyledonous and monocotyledonous plants; assay: Postemergence greenhouse herbicidal test; type: in vivo; details: Postemergence application
Description: The herbicidal activity of the compounds was tested as described in the U.S. Pat. No. 5,635,449. […] In the tests, seedling plants are grown in jiffy flats for about two weeks. The test compounds are dispersed in 50/50 acetone/water mixtures containing 0.5% TWEEN®20, a polyoxyethylene sorbitan monolaurate surfactant of Atlas Chemical Industries, in sufficient quantities to provide the equivalent of about 1.0 kg to 8.0 kg per hectare of test compound when applied to the plants through a spray nozzle operating at 40 psi for a predetermined time. After spraying, the plants are placed on greenhouse benches and are cared for in the usual manner, commensurate with conventional greenhouse practices. From four to five weeks after treatment, the seedling plants are examined and rate according to the rating system set forth below.

[2] = target: T1, Salmonella typhimurium tryptophan synthase holoenzyme (α2β2), TSα reaction (Salmonella typhimurium, UniProt P00929); assay: Inhibition of tryptophan synthase by the TSα reaction, microtiter kinetic coupled enzyme assay; type: biochemical
T1 construct: made in house; host or cells: E. coli strain CB149pSTB7
Procedure, shortened: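 S. typhimurium α2β2 holoenzyme (~1.5 e.u.) in 50 mM Tris-Cl pH 7.8 with 60 mM serine, started with 100 μM IGP (1.5-2× Km), 37° C. Glyceraldehyde-3-P formation coupled to yeast GAPDH/1.6 mM NAD+, read at 340 nm. Inhibitor at 100 μM or 1:1 dilutions; some preincubated 24 h before IGP.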

Arabidopsis thaliana = assay: Herbicidal activity and tryptophan reversal on Arabidopsis grown on agar medium; type: in vivo; design: key: 0 - no effect; 9 - total kill; C - chlorotic seedlings 4-6 days after treatment
Description: In this experiment, TS inhibitors were tested on Arabidopsis thaliana grown Murashige minimal organics medium, (obtained from Life Technologies, Grand Island, N.Y.), containing 0.7% agar. Compounds were tested at different concentrations to assess their herbicidal activity.

T1 sequence (P00929 whole entry): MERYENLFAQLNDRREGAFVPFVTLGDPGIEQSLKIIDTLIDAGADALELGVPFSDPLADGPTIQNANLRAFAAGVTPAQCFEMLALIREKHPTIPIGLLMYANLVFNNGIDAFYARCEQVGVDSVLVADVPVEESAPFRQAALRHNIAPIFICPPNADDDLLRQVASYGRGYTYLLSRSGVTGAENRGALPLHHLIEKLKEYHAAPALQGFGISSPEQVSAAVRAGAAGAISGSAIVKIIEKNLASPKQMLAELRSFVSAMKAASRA
T1 sequence (P0A2K1 2-397, further chain): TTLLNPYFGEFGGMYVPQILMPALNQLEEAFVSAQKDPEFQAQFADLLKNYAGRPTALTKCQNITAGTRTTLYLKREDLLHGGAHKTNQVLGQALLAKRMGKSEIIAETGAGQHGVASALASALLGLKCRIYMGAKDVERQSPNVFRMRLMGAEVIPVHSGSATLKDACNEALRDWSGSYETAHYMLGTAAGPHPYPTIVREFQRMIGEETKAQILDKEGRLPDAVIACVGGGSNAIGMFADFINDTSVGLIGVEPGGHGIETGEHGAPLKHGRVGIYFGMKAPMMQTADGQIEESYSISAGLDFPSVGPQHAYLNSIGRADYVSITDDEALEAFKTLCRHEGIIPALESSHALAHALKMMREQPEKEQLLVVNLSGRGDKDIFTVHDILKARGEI

## O=P(O)(O)CCCCSc1ccccc1O [Compound 22, {4-[(o-hydroxyphenyl)thio]butyl}-phosphonic acid]
[1]
  Herbicidal Activity: +++ (+++ = 80-100% injury to two species)
[2]; I50 TS, TSα reaction of Salmonella holoenzyme
  IC50: 130 nM
[2]; TSα activity (Salmonella enzyme) I50
  IC50: 130 nM
Arabidopsis thaliana; herbicide 7.8 μM
  herbicidal injury rating: 0
Arabidopsis thaliana; herbicide 16 μM
  herbicidal injury rating: 1
Arabidopsis thaliana; herbicide 31 μM
  herbicidal injury rating: 1C
Arabidopsis thaliana; herbicide 63 μM
  herbicidal injury rating: 3C
Arabidopsis thaliana; herbicide 125 μM
  herbicidal injury rating: 3C
Arabidopsis thaliana; herbicide 250 μM
  herbicidal injury rating: 3C
Arabidopsis thaliana; herbicide 500 μM
  herbicidal injury rating: 5C
Arabidopsis thaliana; herbicide 1000 μM
  herbicidal injury rating: 6C
Arabidopsis thaliana; herbicide 7.8 mM, no Trp
  herbicidal rating: 5
Arabidopsis thaliana; herbicide 16 mM, no Trp
  herbicidal rating: 5
Arabidopsis thaliana; herbicide 31 mM + 100 μM Trp
  herbicidal rating: 0
Arabidopsis thaliana; herbicide 31 mM, no Trp
  herbicidal rating: 6
Arabidopsis thaliana; herbicide 63 mM + 100 μM Trp
  herbicidal rating: 1
Arabidopsis thaliana; herbicide 63 mM, no Trp
  herbicidal rating: 6
Arabidopsis thaliana; herbicide 125 mM + 100 μM Trp
  herbicidal rating: 3
Arabidopsis thaliana; herbicide 125 mM, no Trp
  herbicidal rating: 6
Arabidopsis thaliana; herbicide 250 mM + 100 μM Trp
  herbicidal rating: 5
Arabidopsis thaliana; herbicide 250 mM, no Trp
  herbicidal rating: 6
Arabidopsis thaliana; herbicide 500 mM + 100 μM Trp
  herbicidal rating: 3
Arabidopsis thaliana; herbicide 500 mM, no Trp
  herbicidal rating: 6
Arabidopsis thaliana; herbicide 1000 mM + 100 μM Trp
  herbicidal rating: 3
Arabidopsis thaliana; herbicide 1000 mM, no Trp
  herbicidal rating: 7
